Results taken from patent US20230085307A1, “PYRIDAZINONE COMPOUND AND HERBICIDE” (NISSAN CHEMICAL CORPORATION, priority 2019, published 2023).

What was measured:
oval-leafed pondweed [1] = assay: Test Example 1: herbicidal activity, application before weed generation under submerged conditions (Table 16, symbol C); format: in vivo, oval-leafed pondweed (Monochoria vaginalis); details: 320 g/ha applied herbicide
Procedure, shortened: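 Emulsion formulation, water-diluted to set dose, was put onto the flooded surface (4 cm depth, alluvial soil) the same day weeds were sown and 2.5-leaf rice transplanted. After 3 weeks at 25-30 °C under glass, each species was rated 0 (≤5% kill) to 5 (≥90% kill).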

late watergrass = assay: Test Example 2: herbicidal activity, application during weed generation under submerged conditions (Table 17, symbol A); format: in vivo, late watergrass (Echinochloa oryzicola); details: AAH 320 g/ha; application during weed generation, submerged conditions
Procedure, shortened: (§1)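 Herbicide emulsion, diluted with water to the chosen amount, is applied onto 4 cm floodwater over alluvial soil where the weeds were co-sown and raised at 25–30° C. Application timing: 1–2 leaves. Assessment: three weeks afterwards.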

oval-leafed pondweed [2] = assay: Test Example 2: herbicidal activity, application during weed generation under submerged conditions (Table 17, symbol C); format: in vivo, oval-leafed pondweed (Monochoria vaginalis); details: AAH 320 g/ha; application during weed generation, submerged conditions
Procedure, shortened: as §1

rice flat sedge = assay: Test Example 3: herbicidal effect by foliage application, Wagner pot (Table 18, symbol E); format: in vivo, rice flat sedge (Cyperus iria); details: amount of applied herbicide 320 g/ha
Procedure, shortened: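 Plants were sown in alluvial soil held under 0.1–0.5 cm standing water and grown 14 days in a greenhouse at 25–30 °C. An emulsifiable formulation, water-diluted to the set dose, was then sprayed onto the foliage, and effects were scored three weeks later using previously defined criteria.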

green foxtail [3] = assay: Test Example 4: herbicidal effect by soil treatment (Table 19, symbol G); format: in vivo, green foxtail (Setaria viridis); details: amount of applied herbicide 320 g/ha
Procedure, shortened: (§2)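 Applied as a water-diluted emulsion, the compound was sprayed onto soil covering newly sown seeds. Evaluation came three weeks after application, in a greenhouse held at 25° C. to 30° C.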

wild oat = assay: Test Example 4: herbicidal effect by soil treatment (Table 19, symbol I); format: in vivo, wild oat (Avena fatua); details: amount of applied herbicide 320 g/ha
Procedure, shortened: as §2

blackgrass [4] = assay: Test Example 4: herbicidal effect by soil treatment (Table 19, symbol J); format: in vivo, blackgrass (Alopecurus myosuroides); details: amount of applied herbicide 320 g/ha
Procedure, shortened: as §2

Italian ryegrass = assay: Test Example 4: herbicidal effect by soil treatment (Table 19, symbol K); format: in vivo, Italian ryegrass (Lolium multiflorum); details: amount of applied herbicide 320 g/ha
Procedure, shortened: as §2

redroot pigweed [5] = assay: Test Example 4: herbicidal effect by soil treatment (Table 19, symbol N); format: in vivo, redroot pigweed (Amaranthus retroflexus); details: amount of applied herbicide 320 g/ha
Procedure, shortened: as §2

chickweed [6] = assay: Test Example 4: herbicidal effect by soil treatment (Table 19, symbol P); format: in vivo, common chickweed (Stellaria media); details: amount of applied herbicide 320 g/ha
Procedure, shortened: as §2

persian speedwell = assay: Test Example 4: herbicidal effect by soil treatment (Table 19, symbol R); format: in vivo, Persian speedwell (Veronica persica); details: amount of applied herbicide 320 g/ha
Procedure, shortened: as §2

green foxtail [7] = assay: Test Example 5: herbicidal effect by foliage application, plastic box (Table 20, symbol G); format: in vivo, green foxtail (Setaria viridis); details: foliage application, AAH 320 g/ha, evaluated three weeks after application
Procedure, shortened: (§3)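 Sow seeds spot-wise in sterilized diluvial soil; cover with ~1.5 cm soil. Grow 14 days in greenhouse, 25° C. to 30° C. Spray foliage with emulsion diluted to predetermined amount. Rate effect after 3 weeks.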

barnyard grass = assay: Test Example 5: herbicidal effect by foliage application, plastic box (Table 20, symbol H); format: in vivo, barnyard grass (Echinochloa crus-galli); details: foliage application, AAH 320 g/ha, evaluated three weeks after application
Procedure, shortened: as §3

blackgrass [8] = assay: Test Example 5: herbicidal effect by foliage application, plastic box (Table 20, symbol J); format: in vivo, blackgrass (Alopecurus myosuroides); details: foliage application, AAH 320 g/ha, evaluated three weeks after application
Procedure, shortened: as §3

redroot pigweed [9] = assay: Test Example 5: herbicidal effect by foliage application, plastic box (Table 20, symbol N); format: in vivo, redroot pigweed (Amaranthus retroflexus); details: foliage application, AAH 320 g/ha, evaluated three weeks after application
Procedure, shortened: as §3

chickweed [10] = assay: Test Example 5: herbicidal effect by foliage application, plastic box (Table 20, symbol P); format: in vivo, common chickweed (Stellaria media); details: foliage application, AAH 320 g/ha, evaluated three weeks after application
Procedure, shortened: as §3

| Compound | Herbicidal effect on C: oval-leafed pondweed (grade 0-5) (oval-leafed pondweed [1]) | herbicidal effect rating, A: late watergrass (late watergrass) | herbicidal effect rating, C: oval-leafed pondweed (oval-leafed pondweed [2]) | herbicidal effect on E: rice flat sedge (rice flat sedge) | herbicidal effect on G: green foxtail (green foxtail [3]) | herbicidal effect on I: wild oat (wild oat) | herbicidal effect on J: blackgrass (blackgrass [4]) | herbicidal effect on K: Italian ryegrass (Italian ryegrass) | herbicidal effect on N: redroot pigweed (redroot pigweed [5]) | herbicidal effect on P: chickweed (chickweed [6]) | herbicidal effect on R: persian speedwell (persian speedwell) | G: green foxtail, herbicidal effect (criteria 0-5) (green foxtail [7]) | H: barnyard grass, herbicidal effect (criteria 0-5) (barnyard grass) | J: blackgrass, herbicidal effect (criteria 0-5) (blackgrass [8]) | N: redroot pigweed, herbicidal effect (criteria 0-5) (redroot pigweed [9]) | P: chickweed, herbicidal effect (criteria 0-5) (chickweed [10]) |
| --- | --- | --- | --- | --- | --- | --- | --- | --- | --- | --- | --- | --- | --- | --- | --- | --- |
| COc1cccc(S(=O)(=O)Oc2c(C)nn(C)c(=O)c2-c2c(-c3ccc(OC(F)F)cc3)sc3ccc(F)cc23)c1 [2-313] | 0 (Herbicidal rate of 5% or less (almost no effect)) | 3 (Herbicidal rate of 40% or more and less than 70%) | 3 (Herbicidal rate of 40% or more and less than 70%) | 5 (Herbicidal rate of 90% or more (almost completely withered)) | 2 (Herbicidal rate of 20% or more and less than 40%) | 0 (Herbicidal rate of 5% or less (almost no effect)) | 0 (Herbicidal rate of 5% or less (almost no effect)) | 5 (Herbicidal rate of 90% or more (almost completely withered)) | 5 (Herbicidal rate of 90% or more (almost completely withered)) | 5 (Herbicidal rate of 90% or more (almost completely withered)) | 5 (Herbicidal rate of 90% or more (almost completely withered)) | 5 (Herbicidal rate of 90% or more (almost completely withered)) | 5 (Herbicidal rate of 90% or more (almost completely withered)) | 4 (Herbicidal rate of 70% or more and less than 90%) | 5 (Herbicidal rate of 90% or more (almost completely withered)) | 5 (Herbicidal rate of 90% or more (almost completely withered)) |
| C#CCSCc1ccc(-c2sc3ccc(F)cc3c2-c2c(O)c(C)nn(C)c2=O)cc1 [2-325] | 0 (Herbicidal rate of 5% or less (almost no effect)) | 2 (Herbicidal rate of 20% or more and less than 40%) | 0 (Herbicidal rate of 5% or less (almost no effect)) | 5 (Herbicidal rate of 90% or more (almost completely withered)) | 2 (Herbicidal rate of 20% or more and less than 40%) | 0 (Herbicidal rate of 5% or less (almost no effect)) | 0 (Herbicidal rate of 5% or less (almost no effect)) | 4 (Herbicidal rate of 70% or more and less than 90%) | 4 (Herbicidal rate of 70% or more and less than 90%) | 0 (Herbicidal rate of 5% or less (almost no effect)) | 5 (Herbicidal rate of 90% or more (almost completely withered)) | 5 (Herbicidal rate of 90% or more (almost completely withered)) | 5 (Herbicidal rate of 90% or more (almost completely withered)) | 4 (Herbicidal rate of 70% or more and less than 90%) | 5 (Herbicidal rate of 90% or more (almost completely withered)) | 5 (Herbicidal rate of 90% or more (almost completely withered)) |
| Cc1nn(C)c(=O)c(-c2c(-c3ccc(CSCC(F)(F)F)cc3)sc3ccc(F)cc23)c1O [2-331] | 0 (Herbicidal rate of 5% or less (almost no effect)) | 3 (Herbicidal rate of 40% or more and less than 70%) | 0 (Herbicidal rate of 5% or less (almost no effect)) | 4 (Herbicidal rate of 70% or more and less than 90%) | 4 (Herbicidal rate of 70% or more and less than 90%) | 0 (Herbicidal rate of 5% or less (almost no effect)) | 0 (Herbicidal rate of 5% or less (almost no effect)) | 5 (Herbicidal rate of 90% or more (almost completely withered)) | 5 (Herbicidal rate of 90% or more (almost completely withered)) | 0 (Herbicidal rate of 5% or less (almost no effect)) | 4 (Herbicidal rate of 70% or more and less than 90%) | 5 (Herbicidal rate of 90% or more (almost completely withered)) | 5 (Herbicidal rate of 90% or more (almost completely withered)) | 4 (Herbicidal rate of 70% or more and less than 90%) | 5 (Herbicidal rate of 90% or more (almost completely withered)) | 5 (Herbicidal rate of 90% or more (almost completely withered)) |
| Cc1nn(C)c(=O)c(-c2c(-c3ccc(C#N)cc3)sc3ccc(F)cc23)c1O [2-340] | 4 (Herbicidal rate of 70% or more and less than 90%) | 5 (Herbicidal rate of 90% or more (almost completely withered)) | 3 (Herbicidal rate of 40% or more and less than 70%) | 5 (Herbicidal rate of 90% or more (almost completely withered)) | 5 (Herbicidal rate of 90% or more (almost completely withered)) | 3 (Herbicidal rate of 40% or more and less than 70%) | 3 (Herbicidal rate of 40% or more and less than 70%) | 5 (Herbicidal rate of 90% or more (almost completely withered)) | 5 (Herbicidal rate of 90% or more (almost completely withered)) | 5 (Herbicidal rate of 90% or more (almost completely withered)) | 5 (Herbicidal rate of 90% or more (almost completely withered)) | 5 (Herbicidal rate of 90% or more (almost completely withered)) | 5 (Herbicidal rate of 90% or more (almost completely withered)) | 5 (Herbicidal rate of 90% or more (almost completely withered)) | 5 (Herbicidal rate of 90% or more (almost completely withered)) | 5 (Herbicidal rate of 90% or more (almost completely withered)) |
